Source: US7371539B2 (priority 2003, dated 2008)
“Also recorded” adds a separate entry of the source.

Assays:
[1] = tested on: Tor-His3 reporter; assay: Western assay of reporter degradation in liquid culture after cycloheximide (in vivo); type: cell-based, S. cerevisiae; conditions: PS-341 200 μM; Δpdr5 strains Pre10-FPR1 and Rpn10-FPR1
Experimental: The aforementioned growth assay was a convenient tool for isolating strains to further explore DTL. […] To address this point, degradation of the reporters was directly measured. Strains Pre10-FPR1 and Rpn10-FPR1 were singly transformed with plasmids that expressed hemagglutinin (HA) epitope-tagged versions of Tor-His3 and TorS1972R-His3. The transformants were grown in liquid culture to early log phase, whereupon cycloheximide was added to halt protein translation. Each culture was then split in two and rapamycin was added to one. Samples were collected at various times and whole-cell protein extracts were generated and used for Western analysis (FIGS. 4A-4H). […] These experiments confirm that the growth deficient phenotype seen on histidine-dropout media was due to the degradation of the Tor-His3 reporter and that the 26S proteasome is necessary for this to occur.
In both assays, rapamycin was added to a final concentration of 1 μM, cycloheximide was added to a final concentration of 30 ng/ml and PS-341 was added to a final concentration of 200 μM. For liquid cultures, samples were extracted at fixed time intervals (0, 30, 60, 90 minutes) and whole cell extracts were made. 25 μg of total protein was used from each sample, resolved by SDS-PAGE and transferred to PVDF membranes. […]

[2] = tested on: T1, Tor-His3 with purified 26S proteasomes from strain Rpn10-FPR1; assay: In vitro degradation assay with purified 26S proteasomes and purified reporter; type: biochemical, S. cerevisiae; conditions: PS-341 100 μM, rapamycin 1 μM
T1 construct: made in house; host or cells: reporter: E. coli DH5αPRO (PROTet.133 vector)
Text: Whole, functional 26S proteasomes have been previously affinity-purified for use in biochemical assays (Leggett et al. (2002) Mol. Cell 10:495). The same procedure was used to isolate proteasomes from strain Rpn10-FPR1. HA epitope-tagged versions of Tor-His3 and TorS1972R-His3 were purified from a bacterial expression system and then mixed with the proteasomes, with or without rapamycin. Samples were extracted at regular intervals and reporter degradation was monitored by Western analysis (FIG. 5A). […] Once again, proteolysis of Tor-His3 could be halted upon the addition of the proteasome inhibitor PS-341.
26S proteasomes were affinity purified from strains Pre10-FPR1 and Rpn10 FPR1 using the Rpn11-TEV-ProA tag described previously (Leggett et al. (2002) Mol. Cell 10:495). Cells were grown in YPD, harvested, resuspended in 50 mM Tris-HCl [pH 8], 1 mM EDTA and lysed by French press. Lysates was centrifuged at 15,000×g for 25 minutes, filtered and incubated with IgG resin (ICN) for 1 hr at 4° C. Resin was collected in a column, washed with 100 bed volumes of 50 mM Tris-HCl [pH 8], 50 mM NaCl, 1 mM EDTA buffer and equilibrated with TEV-protease buffer (50 mM Tris-HCl [pH 7.5], 1 mM EDTA, 1 mM DTT). […] The integrity of the 26S complexes and presence of Pre10-FPR1 and Rpn10-FPR1 tagged subunits was analyzed by Coomassie staining, SDS-PAGE and immunodetection. […]

Q: Which results are given for `CC(C)C[C@H](NC(=O)[C@H](Cc1ccccc1)NC(=O)c1cnccn1)B(O)O` [PS-341]?
A: effect on degradation of Tor-His3 in the presence of rapamycin [1]: prevented Tor-His3 from degrading; also recorded: halted degradation of Tor-His3; effect on proteolysis of Tor-His3 in vitro [2]: halted
